Columns and labels:
PC12 neuroblastoma cells = experiment: Prevention of cell death induced by oxidative stress (DDTC, superoxide dismutase inhibition); type: cell-based, rat; settings: varying amounts of DDTC and IPA, FIG. 5
Description: To further confirm the observations shown in Example 4, we studied whether IPA was effective in preventing death of cells exposed to oxidative stress (DDTC). PC12 neuroblastoma cells were treated with varying amounts of DDTC, with or without varying amounts of IPA. The anti-oxidant activity of IPA is shown by preventing cell death of neurblastoma cells induced by inhibition of the superoxide dismutase by DDTC.

Aβ (1-40) = Aβ (1-40) (Homo sapiens, UniProt P05067); experiment: Aβ fibrillogenesis, thioflavin T fluorescence (β sheet formation); type: biochemical; settings: 150 μM Aβ (1-40), 300 μM IPA, sodium salt
Chain of Aβ (1-40) (P05067 672-711): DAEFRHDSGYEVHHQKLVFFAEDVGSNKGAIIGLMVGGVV
Description: As a control, the ultrapure water used to dissolve the IPA containing an equivalent amount of sodium chloride was added to 150 μM Aβ (1-40) at a pH of 7. In one experiment, each of the solutions (i.e., the solution containing IPA and the control solution) was incubated for 24 hours. In a second experiment, each of the solutions was incubated for 48 hours. At the end of each incubation period, 50 mM glycine-NaOH buffer (pH 9.2) containing 2 μM thioflavin T was added to each sample (5 μL) to a final volume of 2 mL. Fluorescence, which is a direct measure of β sheet formation, was measured at an excitation wavelength of 435 nm and an emission wavelength of 485 nm using a Hitachi F-2000 fluorescence spectrometer. The average and standard deviations of the mean of 3 samples per condition were determined, and the results are presented (as bar graphs) in FIG. 6A (24 hour incubation) and FIG. 6B (48 hour incubation).

PC12 cells = experiment: Lipid peroxidation (malondialdehyde levels) in cells exposed to Aβ or DDTC; type: cell-based, rat; settings: PC12 cells exposed to amyloid peptide Aβ(1-42) or DDTC, with IPA; FIG. 4
Excerpt: In order to investigate the possibility that the cytoprotective properties of IPA are also the result, at least in part, of anti-oxidant activity, the -levels of malondialdehyde (“MDA”), a marker of lipid peroxidation, in PC12 cells exposed to Aβ or to oxidative stress were examined. Oxidative stress was delivered by exposing cells to […] (“DDTC”), an inhibitor of superoxide dismutase and an established model of oxidative injury. The PC12 cells were exposed to either amyloid peptide alone or amyloid peptide along with IPA. In other experiments, the cells were exposed to either DDTC alone or DDTC with IPA.

[1] = test system: human neuroblastoma cell line SK-N-SH; experiment: Cytoprotection against Aβ(25-35) toxicity, cell viability; type: cell-based; settings: SK-N-SH cells, 50 μM Aβ (25-35), 50 μM compound; FIG. 1
Description: To illustrate the cytoprotective affects of IPA against the cytotoxic effects of Aβ, cells of the human neuroblastoma cell line SK-N-SH were used. These cells were exposed to 50 μM Aβ (25-35), the actively toxic fragment of Aβ (Yankner et al., 1990) with or without 50 μM of IPA. As a control, the experiments were repeated without Aβ. As a positive control, the well-known anti-oxidant, phenyl-N-t-butylnitrone (“PBN”) was substituted for IPA.

thioflavin T fluorescence (β sheet formation) relative to control (Aβ (1-40); pH 7, 24 hour incubation, FIG. 6A) | thioflavin T fluorescence (β sheet formation) relative to control (Aβ (1-40); pH 7, 48 hour incubation, FIG. 6B) | SMILES | survival of cells exposed to DDTC (PC12 neuroblastoma cells) | production of malondialdehyde (MDA), marker of lipid peroxidation (PC12 cells) | protective activity against cytotoxic effect of Aβ (viability, percent) [1]
significantly less | significantly less | O=C(O)CCc1c[nH]c2ccccc12 [IPA, indole-3-propionic acid] | increases the survival of cells exposed to DDTC | significantly decreases the production of malondialdehyde | –
– | – | CC(C)(C)[N+]([O-])=Cc1ccccc1 [PBN, phenyl-N-t-butylnitrone] | – | – | strong protective activity
